Columns and labels:
Hck wild-type = target: T1, Hck wild-type (Homo sapiens, UniProt P08631); assay: Z'-LYTE in vitro kinase assay; assay type: biochemical; settings: Tyr-2 peptide 1.0 μM, read-out: ATP Km
T1 construct: Recombinant near-full-length kinases, consisting of the SH2, SH3 and kinase domains plus the negative regulatory tail; made in house; host or cells: E. coli BL21Star (DE3), co-expressed with Csk and PTP1B

Hck T338M = target: T2, Hck T338M (Homo sapiens, UniProt P08631, T333M); assay: Z'-LYTE in vitro kinase assay; assay type: biochemical; settings: Hck T338M; Tyr-2 peptide 1.0 μM; read-out: ATP Km
T2 construct: Recombinant near-full-length kinases, consisting of the SH2, SH3 and kinase domains plus the negative regulatory tail; made in house; host or cells: E. coli BL21Star (DE3), co-expressed with Csk and PTP1B

Hck T338L = target: T3, Hck T338L (Homo sapiens, UniProt P08631, T333L); assay: Z'-LYTE in vitro kinase assay; assay type: biochemical; settings: Hck T338L; Tyr-2 peptide 1.0 μM; read-out: ATP Km
T3 construct: Recombinant near-full-length kinases, consisting of the SH2, SH3 and kinase domains plus the negative regulatory tail; made in house; host or cells: E. coli BL21Star (DE3), co-expressed with Csk and PTP1B

Hck T338F = target: T4, Hck T338F (Homo sapiens, UniProt P08631, T333F); assay: Z'-LYTE in vitro kinase assay; assay type: biochemical; settings: Hck T338F; Tyr-2 peptide 1.0 μM; read-out: ATP Km
T4 construct: Recombinant near-full-length kinases, consisting of the SH2, SH3 and kinase domains plus the negative regulatory tail; made in house; host or cells: E. coli BL21Star (DE3), co-expressed with Csk and PTP1B

Fgr wild-type = target: T5, Fgr wild-type (Homo sapiens, UniProt P09769); assay: Z'-LYTE in vitro kinase assay; assay type: biochemical; settings: Tyr-2 peptide 1.0 μM, read-out: ATP Km
T5 construct: Recombinant near-full-length kinases, consisting of the SH2, SH3 and kinase domains plus the negative regulatory tail; made in house; host or cells: E. coli BL21Star (DE3), co-expressed with Csk and PTP1B
Method: (§3) Assays were performed in quadruplicate in 384-well low volume, non-binding, black polystyrene microplates (Corning) according to the manufacturer’s instructions. Briefly, this assay measures phosphorylation of the Tyr2 peptide substrate which is tagged with coumarin and fluorescein on its N- and C-termini, respectively, to form a FRET pair. After the kinase reaction, a development step involves site-specific proteolytic cleavage of the unphosphorylated but not the phosphorylated peptide. […] Kinase reactions were run in 50 mM HEPES, pH 7.5, 10 mM MgCl2, 1 mM EGTA, and 0.01% BRIJ-35 (buffer supplied by the manufacturer). […] Following incubation for 1 h at ambient temperature, reactions were quenched by addition of the development protease, and coumarin and fluorescein fluorescence were measured 1 h later on a Molecular Devices SpectraMax M5 plate reader. […] For experiments with inhibitors, compounds were preincubated with kinase for 30 min prior to initiation of the reaction by the addition of ATP.

Fgr T338M = target: T6, Fgr T338M (Homo sapiens, UniProt P09769, T334M); assay: Z'-LYTE in vitro kinase assay; assay type: biochemical; settings: Fgr T338M; Tyr-2 peptide 1.0 μM; read-out: ATP Km
T6 construct: Recombinant near-full-length kinases, consisting of the SH2, SH3 and kinase domains plus the negative regulatory tail; made in house; host or cells: E. coli BL21Star (DE3), co-expressed with Csk and PTP1B
Method: as §3

Fgr T338L = target: T7, Fgr T338L (Homo sapiens, UniProt P09769, T334L); assay: Z'-LYTE in vitro kinase assay; assay type: biochemical; settings: Tyr-2 peptide 1.0 μM, read-out: ATP Km
T7 construct: Recombinant near-full-length kinases, consisting of the SH2, SH3 and kinase domains plus the negative regulatory tail; made in house; host or cells: E. coli BL21Star (DE3), co-expressed with Csk and PTP1B
Method: as §3

Fgr T338F = target: T8, Fgr T338F (Homo sapiens, UniProt P09769, T334F); assay: Z'-LYTE in vitro kinase assay; assay type: biochemical; settings: Fgr T338F; Tyr-2 peptide 1.0 μM; read-out: ATP Km
T8 construct: Recombinant near-full-length kinases, consisting of the SH2, SH3 and kinase domains plus the negative regulatory tail; made in house; host or cells: E. coli BL21Star (DE3), co-expressed with Csk and PTP1B
Method: as §3

Lyn wild-type = target: T9, Lyn wild-type (Homo sapiens, UniProt P07948); assay: Z'-LYTE in vitro kinase assay; assay type: biochemical; settings: Tyr-2 peptide 1.0 μM, read-out: ATP Km
T9 construct: Recombinant near-full-length kinases, consisting of the SH2, SH3 and kinase domains plus the negative regulatory tail; made in house; host or cells: E. coli BL21Star (DE3), co-expressed with Csk and PTP1B

Lyn T338M = target: T10, Lyn T338M (Homo sapiens, UniProt P07948, T319M); assay: Z'-LYTE in vitro kinase assay; assay type: biochemical; settings: Tyr-2 peptide 1.0 μM, read-out: ATP Km
T10 construct: Recombinant near-full-length kinases, consisting of the SH2, SH3 and kinase domains plus the negative regulatory tail; made in house; host or cells: E. coli BL21Star (DE3), co-expressed with Csk and PTP1B

Lyn T338L = target: T11, Lyn T338L (Homo sapiens, UniProt P07948, T319L); assay: Z'-LYTE in vitro kinase assay; assay type: biochemical; settings: Tyr-2 peptide 1.0 μM, read-out: ATP Km
T11 construct: Recombinant near-full-length kinases, consisting of the SH2, SH3 and kinase domains plus the negative regulatory tail; made in house; host or cells: E. coli BL21Star (DE3), co-expressed with Csk and PTP1B

Lyn T338F = target: T12, Lyn T338F (Homo sapiens, UniProt P07948, T319F); assay: Z'-LYTE in vitro kinase assay; assay type: biochemical; settings: Tyr-2 peptide 1.0 μM, read-out: ATP Km
T12 construct: Recombinant near-full-length kinases, consisting of the SH2, SH3 and kinase domains plus the negative regulatory tail; made in house; host or cells: E. coli BL21Star (DE3), co-expressed with Csk and PTP1B

MOLM13 cells (parent) = assay: CellTiter-Blue cell viability; assay type: cell-based, human; settings: Homo sapiens, MOLM-13, S11 Fig, read-out: PRT062607 IC50, nM (growth suppression)
Method: (§1) Gibco/ThermoFisher). Parental TF-1 cells also require recombinant human GM-CSF (1 ng/mL; ThermoFisher). MOLM13 and MOLM14 cells were obtained from Leibniz Institute Deutsche Sammlung von Mikroorganismen (DSMZ) and grown in RPMI 1640 medium containing 20% FBS and Antibiotic-Antimycotic. […] Cell viability was assessed using the CellTiter-Blue reagent according to the manufacturer’s instructions (Promega). Fluorescence intensity, which correlates directly with viable cell number, was measured using a SpectraMax M5 microplate reader. Each experiment included three technical replicates per condition, and each experiment was repeated at least three times.

MOLM14 cells (parent) = assay: CellTiter-Blue cell viability; assay type: cell-based, human; settings: Homo sapiens, MOLM-14, S11 Fig, read-out: PRT062607 IC50, nM (growth suppression)
Method: as §1

MV4-11 cells (parent) = assay: CellTiter-Blue cell viability; assay type: cell-based, human; settings: Homo sapiens; S11 Fig; MV4-11 Parent; read-out: PRT062607 IC50, nM (growth suppression)
Method: as §1

[1] = tested on: MOLM13 R3 (A-419259-resistant population); assay: CellTiter-Blue cell viability; assay type: cell-based, human; settings: Homo sapiens, MOLM-13, S11 Fig, read-out: PRT062607 IC50, nM (growth suppression)
Method: (§2) Cell viability was assessed using the CellTiter-Blue reagent according to the manufacturer’s instructions (Promega). Fluorescence intensity, which correlates directly with viable cell number, was measured using a SpectraMax M5 microplate reader. Each experiment included three technical replicates per condition, and each experiment was repeated at least three times. […] Viability of each cell population was measured three times per week using the CellTiter-Blue assay.

[2] = tested on: MOLM14 R1 (A-419259-resistant population); assay: CellTiter-Blue cell viability; assay type: cell-based, human; settings: Homo sapiens, MOLM-14, S11 Fig, read-out: PRT062607 IC50, nM (growth suppression)
Method: as §2

[3] = tested on: MOLM14 R2 (A-419259-resistant population); assay: CellTiter-Blue cell viability; assay type: cell-based, human; settings: Homo sapiens, MOLM-14, S11 Fig, read-out: PRT062607 IC50, nM (growth suppression)
Method: as §2

[4] = tested on: MOLM14 R3 (A-419259-resistant population); assay: CellTiter-Blue cell viability; assay type: cell-based, human; settings: Homo sapiens, MOLM-14, S11 Fig, read-out: PRT062607 IC50, nM (growth suppression)
Method: as §2

[5] = tested on: MV4-11 R2 (A-419259-resistant population); assay: CellTiter-Blue cell viability; assay type: cell-based, human; settings: Homo sapiens, S11 Fig, read-out: PRT062607 IC50, nM (growth suppression)
Method: as §2

[6] = tested on: MV4-11 R3 (A-419259-resistant population); assay: CellTiter-Blue cell viability; assay type: cell-based, human; settings: Homo sapiens, S11 Fig, read-out: PRT062607 IC50, nM (growth suppression)
Method: as §2

[7] = tested on: MV4-11, MOLM13 and MOLM14 parent and A-419259-resistant cell populations; assay: CellTiter-Blue cell viability, parent and resistant AML populations as a group; assay type: cell-based, human
Method: as §2

[8] = tested on: myeloid Src-family kinases; set-up: method as in S. Hellwig and T. Smithgall, unpublished data; settings: ref S. Hellwig and T. Smithgall, unpublished data; cited from earlier work

T2 sequence (P08631 78-526 T333M limits assumed): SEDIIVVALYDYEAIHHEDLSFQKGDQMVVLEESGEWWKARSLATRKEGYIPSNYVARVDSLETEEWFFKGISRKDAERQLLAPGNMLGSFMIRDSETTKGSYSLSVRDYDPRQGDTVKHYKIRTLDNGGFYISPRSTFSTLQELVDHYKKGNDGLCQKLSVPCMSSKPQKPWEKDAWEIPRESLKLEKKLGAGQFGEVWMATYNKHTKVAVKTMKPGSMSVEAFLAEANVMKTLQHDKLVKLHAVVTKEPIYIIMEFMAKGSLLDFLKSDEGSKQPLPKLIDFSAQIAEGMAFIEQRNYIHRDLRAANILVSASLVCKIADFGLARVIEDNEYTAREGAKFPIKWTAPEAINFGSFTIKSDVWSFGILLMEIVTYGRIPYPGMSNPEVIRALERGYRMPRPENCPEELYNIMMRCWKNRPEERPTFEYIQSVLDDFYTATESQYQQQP
T12 sequence (P07948 63-512 T319F limits assumed): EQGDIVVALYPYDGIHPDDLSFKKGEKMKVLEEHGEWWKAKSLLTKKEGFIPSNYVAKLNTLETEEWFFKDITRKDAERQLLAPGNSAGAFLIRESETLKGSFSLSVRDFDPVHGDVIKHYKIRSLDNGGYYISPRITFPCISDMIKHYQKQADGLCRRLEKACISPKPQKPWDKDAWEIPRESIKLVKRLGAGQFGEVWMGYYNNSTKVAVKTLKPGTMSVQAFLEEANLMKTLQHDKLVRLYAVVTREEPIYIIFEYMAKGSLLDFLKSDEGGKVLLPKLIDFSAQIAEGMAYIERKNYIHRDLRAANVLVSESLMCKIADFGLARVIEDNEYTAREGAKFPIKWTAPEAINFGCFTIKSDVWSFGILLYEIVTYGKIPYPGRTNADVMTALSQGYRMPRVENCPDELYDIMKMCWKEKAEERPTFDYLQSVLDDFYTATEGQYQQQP
T10 sequence (P07948 63-512 T319M limits assumed): as the sequence (P07948 63-512 T319F limits assumed) above, with F257M counted along it
T3 sequence (P08631 78-526 T333L limits assumed): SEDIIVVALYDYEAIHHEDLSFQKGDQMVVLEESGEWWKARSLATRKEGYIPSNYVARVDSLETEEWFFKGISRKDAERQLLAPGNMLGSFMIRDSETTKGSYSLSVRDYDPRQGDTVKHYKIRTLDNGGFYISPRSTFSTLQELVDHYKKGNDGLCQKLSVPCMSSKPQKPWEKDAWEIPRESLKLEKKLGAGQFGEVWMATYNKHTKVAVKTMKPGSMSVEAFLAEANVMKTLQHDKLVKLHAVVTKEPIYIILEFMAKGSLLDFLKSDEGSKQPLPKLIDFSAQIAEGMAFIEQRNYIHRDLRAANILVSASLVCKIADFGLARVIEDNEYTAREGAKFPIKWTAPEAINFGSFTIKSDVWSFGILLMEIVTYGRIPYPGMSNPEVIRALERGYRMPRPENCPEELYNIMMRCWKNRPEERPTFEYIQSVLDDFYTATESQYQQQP
T1 sequence (P08631 78-526 limits assumed): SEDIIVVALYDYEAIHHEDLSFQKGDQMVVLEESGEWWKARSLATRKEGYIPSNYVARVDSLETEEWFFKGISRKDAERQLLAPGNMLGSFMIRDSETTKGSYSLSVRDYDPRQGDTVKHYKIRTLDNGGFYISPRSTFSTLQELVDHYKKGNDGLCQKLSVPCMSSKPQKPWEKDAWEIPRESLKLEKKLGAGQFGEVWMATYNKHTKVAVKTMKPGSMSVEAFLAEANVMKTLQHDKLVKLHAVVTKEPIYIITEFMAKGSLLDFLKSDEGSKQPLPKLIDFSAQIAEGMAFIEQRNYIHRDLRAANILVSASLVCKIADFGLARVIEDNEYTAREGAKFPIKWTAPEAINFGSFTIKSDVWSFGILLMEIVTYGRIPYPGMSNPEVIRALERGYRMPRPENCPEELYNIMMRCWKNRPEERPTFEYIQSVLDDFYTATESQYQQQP
T9 sequence (P07948 63-512 limits assumed): as the sequence (P07948 63-512 T319F limits assumed) above, with F257T counted along it
T11 sequence (P07948 63-512 T319L limits assumed): as the sequence (P07948 63-512 T319F limits assumed) above, with F257L counted along it
T4 sequence (P08631 78-526 T333F limits assumed): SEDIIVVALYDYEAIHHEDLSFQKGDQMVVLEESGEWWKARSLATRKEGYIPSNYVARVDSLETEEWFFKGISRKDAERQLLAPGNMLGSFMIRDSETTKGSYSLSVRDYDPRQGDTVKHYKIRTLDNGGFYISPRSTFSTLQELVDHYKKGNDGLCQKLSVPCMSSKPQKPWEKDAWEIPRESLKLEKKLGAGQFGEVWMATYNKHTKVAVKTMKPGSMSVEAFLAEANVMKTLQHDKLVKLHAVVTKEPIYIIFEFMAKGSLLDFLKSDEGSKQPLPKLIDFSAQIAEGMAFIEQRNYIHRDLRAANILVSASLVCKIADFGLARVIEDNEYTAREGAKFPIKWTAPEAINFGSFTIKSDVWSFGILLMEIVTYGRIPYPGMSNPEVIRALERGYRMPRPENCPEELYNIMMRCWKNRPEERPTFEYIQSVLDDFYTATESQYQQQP

For Nc1ncnc2c1ncn2[C@@H]1O[C@H](COP(=O)(O)OP(=O)(O)OP(=O)(O)O)[C@@H](O)[C@H]1O [ATP], the Km (Hck wild-type) was 26 µM, the Km (Hck T338M) was 6.9 µM and the Km (Hck T338L) was 17.2 µM. For the same compound, the Km (Hck T338F) was 42 µM, the Km (Fgr wild-type) was 17.9 µM and the Km (Fgr T338M) was 5.3 µM. For the same compound, the Km (Fgr T338L) was 10 µM, the Km (Fgr T338F) was 95.7 µM and the Km (Lyn wild-type) was 32.8 µM. The Km (Lyn T338M) was 7 µM, the Km (Lyn T338L) was 24 µM and the Km (Lyn T338F) was 87.3 µM.
In the case of NC(=O)c1cnc(N[C@@H]2CCCC[C@@H]2N)nc1Nc1cccc(-n2nccn2)c1 [PRT062607], the IC50 (MOLM13 cells (parent)) is reported as 1380 ± 124 nM, the IC50 (MOLM14 cells (parent)) is reported as 1330 ± 183 nM and the IC50 (MV4-11 cells (parent)) is reported as 453 ± 90.7 nM. For the same compound, the IC50 [1] was 1990 ± 377 nM, the IC50 [2] was 2030 ± 1090 nM and the IC50 [3] was 1640 ± 154 nM. The IC50 [4] was 1200 ± 128 nM, the IC50 [5] was 1720 ± 93.5 nM and the IC50 [6] was 795 ± 128 nM. For the same compound, the IC50 ([7]; Homo sapiens, all three parent AML cell lines and their resistant counterparts, read-out: IC50 values for growth suppression) was 500 to 2000 nM and the “effect of added Syk inhibitor on sensitivity to A-419259” value ([7]; fixed concentrations 50, 100 and 200 μM, 72 h, exception MV4-11 R2) was “did not affect”.
For CC(C)(C)c1cc(NC(=O)Nc2ccc(-c3cn4c(n3)sc3cc(OCCN5CCOCC5)ccc34)cc2)no1 [quizartinib], the “inhibition of myeloid Src-family kinases” value [8] is given as “does not inhibit”.

Source: paper PMC6886798, “Expression of myeloid Src-family kinases is associated with poor prognosis in AML and influences Flt3-ITD kinase inhibitor acquired resistance” (PLoS ONE, 2019)
